Measurements published in ChEMBL document CHEMBL5465560, “Selectivity Literature for EUbOPEN Chemogenomic Library” (2024).

How the values were obtained:
[1] = target: Calcium/calmodulin-dependent protein kinase kinase 1 (Homo sapiens) (UniProt Q8N5S9); conditions: at 10 µM
[2] = target: T1, Serine/threonine-protein kinase LATS1 (Homo sapiens) (UniProt O95835); assay: Selectivity interaction (KinomeScan (DiscoverX)) EUB0001049a LATS1; conditions: at 1 µM
T1 sequence (whole entry): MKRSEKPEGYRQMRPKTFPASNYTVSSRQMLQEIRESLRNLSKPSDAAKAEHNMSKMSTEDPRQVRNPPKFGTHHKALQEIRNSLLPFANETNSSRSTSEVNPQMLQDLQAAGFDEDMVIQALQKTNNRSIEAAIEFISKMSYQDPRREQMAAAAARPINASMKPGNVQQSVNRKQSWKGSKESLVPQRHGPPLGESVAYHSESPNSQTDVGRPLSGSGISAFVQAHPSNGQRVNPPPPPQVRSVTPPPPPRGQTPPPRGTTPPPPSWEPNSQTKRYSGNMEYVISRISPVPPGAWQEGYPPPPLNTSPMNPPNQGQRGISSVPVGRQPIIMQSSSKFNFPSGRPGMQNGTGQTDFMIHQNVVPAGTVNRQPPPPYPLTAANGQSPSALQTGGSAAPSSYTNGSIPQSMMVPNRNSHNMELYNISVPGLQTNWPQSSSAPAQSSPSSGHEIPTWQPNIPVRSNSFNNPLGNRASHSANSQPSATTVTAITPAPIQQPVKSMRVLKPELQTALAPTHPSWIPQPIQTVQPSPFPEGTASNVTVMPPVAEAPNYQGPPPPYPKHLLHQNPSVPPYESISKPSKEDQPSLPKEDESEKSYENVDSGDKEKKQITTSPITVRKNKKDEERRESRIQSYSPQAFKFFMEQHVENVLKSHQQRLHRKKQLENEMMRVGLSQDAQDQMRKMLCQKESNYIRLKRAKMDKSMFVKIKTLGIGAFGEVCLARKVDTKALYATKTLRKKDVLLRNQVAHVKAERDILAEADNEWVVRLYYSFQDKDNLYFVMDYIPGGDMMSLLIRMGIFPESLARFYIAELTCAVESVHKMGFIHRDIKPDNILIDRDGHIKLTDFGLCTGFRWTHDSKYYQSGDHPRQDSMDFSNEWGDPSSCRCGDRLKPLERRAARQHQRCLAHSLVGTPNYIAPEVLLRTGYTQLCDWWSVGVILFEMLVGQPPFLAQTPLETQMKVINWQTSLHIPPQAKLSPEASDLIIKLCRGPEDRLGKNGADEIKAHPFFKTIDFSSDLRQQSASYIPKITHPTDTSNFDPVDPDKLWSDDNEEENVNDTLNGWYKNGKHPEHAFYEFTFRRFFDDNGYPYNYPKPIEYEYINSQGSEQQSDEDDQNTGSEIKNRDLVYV

[3] = target: Serine/threonine-protein kinase PAK 6 (Homo sapiens) (UniProt Q9NQU5); assay: Selectivity interaction (Ambit KINOMEscan and KiNATiv profiling in Jurkat cells) EUB0000090b PAK6; type: cell-based; conditions: at 1 µM
[4] = target: G protein-coupled receptor kinase 5 (Homo sapiens, UniProt P34947); assay: Selectivity interaction (Kinase panel (Invitrogen)) EUB0000639a GRK5; conditions: at 200 nM
[5] = target: Dual specificity protein kinase CLK3 (Homo sapiens, UniProt P49761); conditions: at 10 µM
[6] = target: Mitogen-activated protein kinase 3 (Homo sapiens, UniProt P27361); assay: Selectivity interaction (KinomeScan (DiscoverX)) EUB0000229b MAPK3; conditions: at 10 µM
[7] = target: T2, Lymphokine-activated killer T-cell-originated protein kinase (Homo sapiens) (UniProt Q96KB5); assay: Selectivity interaction (ProQinase) EUB0000171b PBK
T2 sequence (whole entry): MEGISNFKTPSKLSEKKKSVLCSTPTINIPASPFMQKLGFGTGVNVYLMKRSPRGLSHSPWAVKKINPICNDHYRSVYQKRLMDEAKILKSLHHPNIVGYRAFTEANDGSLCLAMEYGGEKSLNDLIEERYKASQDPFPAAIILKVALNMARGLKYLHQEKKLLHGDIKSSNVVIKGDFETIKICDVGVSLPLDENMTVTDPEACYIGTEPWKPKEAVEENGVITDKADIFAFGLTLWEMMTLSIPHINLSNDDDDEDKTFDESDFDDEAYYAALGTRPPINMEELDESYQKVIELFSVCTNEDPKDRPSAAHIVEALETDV

Insulin receptor = Insulin receptor (Homo sapiens, UniProt P06213); assay: Selectivity interaction (ProQinase) EUB0000171b INSR; conditions: at 1 µM
[8] = target: T3, Myosin light chain kinase family member 4 (Homo sapiens) (UniProt Q86YV6); assay: Selectivity interaction (KinomeScan (DiscoverX)) EUB0000045b MYLK4
T3 sequence (whole entry): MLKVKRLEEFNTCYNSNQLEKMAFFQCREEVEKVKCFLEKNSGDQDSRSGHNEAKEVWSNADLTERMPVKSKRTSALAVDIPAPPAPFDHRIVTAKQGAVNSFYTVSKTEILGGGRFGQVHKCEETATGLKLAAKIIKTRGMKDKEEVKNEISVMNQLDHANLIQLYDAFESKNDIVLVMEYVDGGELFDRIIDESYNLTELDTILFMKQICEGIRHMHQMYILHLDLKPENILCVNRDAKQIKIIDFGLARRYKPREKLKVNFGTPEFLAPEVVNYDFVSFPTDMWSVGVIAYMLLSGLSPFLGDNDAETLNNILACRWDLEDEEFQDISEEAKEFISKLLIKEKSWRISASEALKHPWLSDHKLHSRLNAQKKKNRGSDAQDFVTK

[9] = target: Serine/threonine-protein kinase PAK 4 (Homo sapiens, UniProt O96013); assay: Selectivity interaction (KinomeScan (DiscoverX)) EUB0000607a PAK4; conditions: at 10 µM
Chain of Serine/threonine-protein kinase PAK 4 (O96013 whole entry, looked up): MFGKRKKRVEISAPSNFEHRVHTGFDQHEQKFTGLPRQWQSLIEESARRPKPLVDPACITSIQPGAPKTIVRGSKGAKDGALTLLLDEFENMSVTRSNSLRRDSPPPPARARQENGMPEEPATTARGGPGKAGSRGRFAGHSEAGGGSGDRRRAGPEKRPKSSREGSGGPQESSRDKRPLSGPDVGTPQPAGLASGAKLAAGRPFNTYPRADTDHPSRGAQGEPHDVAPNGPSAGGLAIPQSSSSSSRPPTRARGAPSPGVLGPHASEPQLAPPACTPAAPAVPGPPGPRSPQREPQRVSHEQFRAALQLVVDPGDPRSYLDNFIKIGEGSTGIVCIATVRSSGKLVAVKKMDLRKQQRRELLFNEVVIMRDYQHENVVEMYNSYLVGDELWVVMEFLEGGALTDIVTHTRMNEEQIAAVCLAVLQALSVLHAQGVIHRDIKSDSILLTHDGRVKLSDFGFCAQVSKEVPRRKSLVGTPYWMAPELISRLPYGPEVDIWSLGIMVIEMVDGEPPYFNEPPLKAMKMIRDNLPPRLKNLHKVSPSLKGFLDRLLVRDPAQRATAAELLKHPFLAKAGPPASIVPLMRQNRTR

Chain of Calcium/calmodulin-dependent protein kinase kinase 1 (Homo sapiens) (Q8N5S9 whole entry, looked up): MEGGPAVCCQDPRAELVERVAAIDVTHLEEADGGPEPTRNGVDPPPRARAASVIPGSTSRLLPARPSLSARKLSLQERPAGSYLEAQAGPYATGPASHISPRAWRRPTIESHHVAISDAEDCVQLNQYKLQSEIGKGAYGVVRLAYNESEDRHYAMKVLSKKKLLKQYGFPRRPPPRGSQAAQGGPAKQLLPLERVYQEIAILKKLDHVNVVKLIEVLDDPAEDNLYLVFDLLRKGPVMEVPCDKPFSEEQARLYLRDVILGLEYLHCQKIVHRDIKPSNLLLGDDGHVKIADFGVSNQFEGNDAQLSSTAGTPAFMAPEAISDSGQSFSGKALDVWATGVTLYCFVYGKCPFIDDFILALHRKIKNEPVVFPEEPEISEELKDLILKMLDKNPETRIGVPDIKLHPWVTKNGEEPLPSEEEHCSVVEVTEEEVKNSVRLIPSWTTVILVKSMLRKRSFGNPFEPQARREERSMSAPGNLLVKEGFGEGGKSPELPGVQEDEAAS
Chain of Mitogen-activated protein kinase 3 (P27361 whole entry): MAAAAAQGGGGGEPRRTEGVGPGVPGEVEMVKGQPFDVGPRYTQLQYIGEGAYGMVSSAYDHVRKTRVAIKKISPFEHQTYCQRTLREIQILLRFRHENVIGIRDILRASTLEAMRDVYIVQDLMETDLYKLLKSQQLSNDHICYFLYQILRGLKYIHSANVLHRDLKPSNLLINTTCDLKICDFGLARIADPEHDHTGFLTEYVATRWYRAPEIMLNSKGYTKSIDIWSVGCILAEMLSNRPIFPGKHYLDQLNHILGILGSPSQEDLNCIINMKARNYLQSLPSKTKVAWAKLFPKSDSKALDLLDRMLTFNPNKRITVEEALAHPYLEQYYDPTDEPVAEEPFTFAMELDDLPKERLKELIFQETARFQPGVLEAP
Chain of Insulin receptor (P06213 28-758 limits assumed): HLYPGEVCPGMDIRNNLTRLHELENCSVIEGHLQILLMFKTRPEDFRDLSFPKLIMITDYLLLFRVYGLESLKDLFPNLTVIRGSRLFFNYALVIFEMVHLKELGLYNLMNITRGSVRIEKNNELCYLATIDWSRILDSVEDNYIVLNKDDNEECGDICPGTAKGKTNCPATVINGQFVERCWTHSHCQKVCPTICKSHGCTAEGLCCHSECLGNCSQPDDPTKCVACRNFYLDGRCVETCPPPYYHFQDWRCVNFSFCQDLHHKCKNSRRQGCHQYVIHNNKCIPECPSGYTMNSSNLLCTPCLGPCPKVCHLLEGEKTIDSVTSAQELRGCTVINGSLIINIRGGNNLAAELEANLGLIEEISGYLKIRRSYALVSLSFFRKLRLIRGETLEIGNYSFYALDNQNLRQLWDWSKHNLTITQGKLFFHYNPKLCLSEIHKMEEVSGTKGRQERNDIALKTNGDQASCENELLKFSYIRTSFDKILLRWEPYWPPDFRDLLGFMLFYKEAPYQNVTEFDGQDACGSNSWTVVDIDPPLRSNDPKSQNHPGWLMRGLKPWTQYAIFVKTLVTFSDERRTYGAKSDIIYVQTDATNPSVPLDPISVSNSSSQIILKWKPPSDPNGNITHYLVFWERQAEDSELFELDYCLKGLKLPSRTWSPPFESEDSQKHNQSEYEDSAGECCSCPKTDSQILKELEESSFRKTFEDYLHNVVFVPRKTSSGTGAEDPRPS
Chain of Insulin receptor (P06213 763-1382 limits assumed): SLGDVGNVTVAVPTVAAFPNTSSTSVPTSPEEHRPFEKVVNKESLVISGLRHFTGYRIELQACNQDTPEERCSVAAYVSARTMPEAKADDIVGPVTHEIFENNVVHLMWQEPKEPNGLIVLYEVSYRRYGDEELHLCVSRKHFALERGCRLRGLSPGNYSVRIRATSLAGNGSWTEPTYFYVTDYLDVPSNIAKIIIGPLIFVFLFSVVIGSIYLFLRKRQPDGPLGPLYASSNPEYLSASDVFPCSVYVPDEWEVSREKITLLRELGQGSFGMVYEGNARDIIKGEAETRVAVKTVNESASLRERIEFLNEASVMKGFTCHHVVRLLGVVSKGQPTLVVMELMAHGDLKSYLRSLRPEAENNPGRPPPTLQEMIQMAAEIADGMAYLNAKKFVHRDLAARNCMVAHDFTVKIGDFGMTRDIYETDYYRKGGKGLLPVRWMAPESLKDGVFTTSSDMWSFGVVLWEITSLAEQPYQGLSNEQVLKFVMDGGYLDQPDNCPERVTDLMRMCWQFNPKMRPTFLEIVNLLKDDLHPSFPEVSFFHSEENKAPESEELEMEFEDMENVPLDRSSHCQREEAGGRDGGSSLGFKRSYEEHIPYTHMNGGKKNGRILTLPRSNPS
Chain of G protein-coupled receptor kinase 5 (P34947 whole entry, looked up): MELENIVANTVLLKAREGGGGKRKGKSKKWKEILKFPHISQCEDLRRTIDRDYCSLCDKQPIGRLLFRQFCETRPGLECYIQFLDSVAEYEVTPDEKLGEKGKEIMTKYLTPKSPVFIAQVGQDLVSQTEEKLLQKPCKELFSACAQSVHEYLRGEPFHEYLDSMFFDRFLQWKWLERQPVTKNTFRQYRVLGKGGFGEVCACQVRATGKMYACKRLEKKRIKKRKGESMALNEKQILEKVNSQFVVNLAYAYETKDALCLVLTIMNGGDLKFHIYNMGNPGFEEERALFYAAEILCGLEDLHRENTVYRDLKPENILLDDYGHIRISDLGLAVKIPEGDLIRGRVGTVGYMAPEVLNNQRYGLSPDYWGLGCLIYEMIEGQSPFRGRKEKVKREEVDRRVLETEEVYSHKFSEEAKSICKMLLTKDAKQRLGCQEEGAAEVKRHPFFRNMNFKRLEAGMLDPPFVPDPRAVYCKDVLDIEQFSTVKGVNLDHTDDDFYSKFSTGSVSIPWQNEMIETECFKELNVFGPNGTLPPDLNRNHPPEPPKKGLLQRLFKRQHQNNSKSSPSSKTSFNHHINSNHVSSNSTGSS
Chain of Serine/threonine-protein kinase PAK 6 (Homo sapiens) (Q9NQU5 whole entry, looked up): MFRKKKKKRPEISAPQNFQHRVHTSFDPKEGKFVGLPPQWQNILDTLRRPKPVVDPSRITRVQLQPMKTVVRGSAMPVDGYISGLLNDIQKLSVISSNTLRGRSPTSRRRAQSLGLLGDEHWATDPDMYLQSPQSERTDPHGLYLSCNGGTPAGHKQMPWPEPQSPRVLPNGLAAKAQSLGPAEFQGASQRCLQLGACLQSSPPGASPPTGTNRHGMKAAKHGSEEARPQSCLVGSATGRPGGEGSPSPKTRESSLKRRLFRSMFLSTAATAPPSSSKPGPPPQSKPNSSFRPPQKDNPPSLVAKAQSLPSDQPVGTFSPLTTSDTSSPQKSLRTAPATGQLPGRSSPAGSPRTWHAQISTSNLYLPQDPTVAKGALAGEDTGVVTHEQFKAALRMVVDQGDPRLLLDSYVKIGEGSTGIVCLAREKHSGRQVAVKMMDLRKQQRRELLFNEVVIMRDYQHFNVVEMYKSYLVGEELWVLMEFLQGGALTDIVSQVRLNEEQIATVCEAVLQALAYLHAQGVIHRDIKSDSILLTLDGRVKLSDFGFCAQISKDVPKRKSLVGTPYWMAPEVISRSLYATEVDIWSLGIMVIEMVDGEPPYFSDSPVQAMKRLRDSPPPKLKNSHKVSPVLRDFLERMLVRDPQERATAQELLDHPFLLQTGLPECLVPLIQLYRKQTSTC
Chain of Dual specificity protein kinase CLK3 (P49761 whole entry, looked up): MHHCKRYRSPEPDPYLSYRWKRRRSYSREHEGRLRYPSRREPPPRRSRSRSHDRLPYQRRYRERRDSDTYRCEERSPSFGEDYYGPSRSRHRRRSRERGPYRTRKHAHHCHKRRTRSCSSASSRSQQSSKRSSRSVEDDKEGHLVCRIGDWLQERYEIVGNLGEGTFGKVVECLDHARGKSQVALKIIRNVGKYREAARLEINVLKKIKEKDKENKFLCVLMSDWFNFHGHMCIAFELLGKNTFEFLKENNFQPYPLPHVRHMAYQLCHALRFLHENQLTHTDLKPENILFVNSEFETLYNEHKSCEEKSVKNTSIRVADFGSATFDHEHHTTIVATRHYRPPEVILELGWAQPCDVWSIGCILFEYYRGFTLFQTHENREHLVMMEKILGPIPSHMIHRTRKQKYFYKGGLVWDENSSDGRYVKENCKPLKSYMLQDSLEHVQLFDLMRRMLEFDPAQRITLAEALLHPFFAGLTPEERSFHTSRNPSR

Cc1cc([C@@H](C)Nc2ccccc2C(=O)O)c2nc(N3CCOCC3)cc(=O)n2c1 [AZD-6482]
% of control [1]: 98%

COc1cc(Nc2nc(C)cc(-c3cnn4nc(OC)ccc34)n2)cc(C(F)(F)F)c1
% of control [2]: 100%

CN(C)C/C=C/C(=O)Nc1ccc(C(=O)N2CCCC(Nc3ncc(Cl)c(-c4c[nH]c5ccccc45)n3)C2)cc1 (configuration not stated)
% of control [3]: 33%

CC[C@@H]1[C@H](F)C(=O)N[C@@H]1COc1nccc2cc(C(N)=O)c(OC)cc12 [ZIMLOVISERTIB]
% of inhibition [4]: 0.578%

CCN(CC)CCCCNc1ncc2cc(-c3cc(OC)cc(OC)c3)c(NC(=O)NC(C)(C)C)nc2n1
% of control [5]: 100%

COc1cc(N(C)c2ccnc3ccc(C(F)(F)F)cc23)cc(OC)c1OC
% binding [6]: 100%

C=CC(=O)Nc1cccc(C(=O)Nc2ccc(Nc3cc(-c4[nH]c(SC)nc4C)ccn3)cc2)c1
% of control ([7]; at 1 µM): 141%
% of control ([7]; at 5 µM): 89%
% of control (Insulin receptor): 81%

C=CC(=O)Nc1cc(-n2c(=O)ccc3cnc4ccc(-c5ccc(NS(C)(=O)=O)cc5)cc4c32)ccc1C
% of control ([8]; at 1 µM): 96%
% of control ([8]; at 10 µM): 97%

CNC(=O)Nc1ccc(-c2nc(N3CC4CCC(C3)O4)c3cnn(C4CCC5(CC4)OCCO5)c3n2)cc1
% of control [9]: 100%
